Experiments:
[1] = AUCinfinity in CD1 mouse small intestine assessed as (12aR)-12-(Diphenylmethyl)-7-hydroxy-3,4,12,12a-tetrahydro-1H-[1,4]oxazino[3,4-c]pyrido[2,1-f ][1,2,4]triazine-6,8-dione level at 15 mg/kg, po administered as single dose measured up to 24 hrs by LC-MS/MS analysis; format: ADME, organism-based; design: dose 15 mg/kg, route oral, time infinity; conditions: in vivo
[2] = AUClast in CD1 mouse trachea assessed as (12aR)-12-(Diphenylmethyl)-7-hydroxy-3,4,12,12a-tetrahydro-1H-[1,4]oxazino[3,4-c]pyrido[2,1-f ][1,2,4]triazine-6,8-dione level at 15 mg/kg, po administered as single dose measured up to 24 hrs by LC-MS/MS analysis; format: ADME, organism-based; conditions: in vivo
[3] = Half life in CD1 mouse kidney assessed as (12aR)-12-(Diphenylmethyl)-7-hydroxy-3,4,12,12a-tetrahydro-1H-[1,4]oxazino[3,4-c]pyrido[2,1-f ][1,2,4]triazine-6,8-dione level at 15 mg/kg, po administered as single dose measured up to 24 hrs by LC-MS/MS analysis; format: ADME, organism-based; conditions: in vivo
[4] = Acute toxicity in CD1 mouse assessed as effect on kidney at 2000 mg/kg, po measured after 2 weeks by macroscopic analysis; format: organism-based; conditions: in vivo, 336 h
[5] = Elimination rate constant in CD1 mouse blood assessed as (12aR)-12-(Diphenylmethyl)-7-hydroxy-3,4,12,12a-tetrahydro-1H-[1,4]oxazino[3,4-c]pyrido[2,1-f ][1,2,4]triazine-6,8-dione level at 15 mg/kg, po administered as single dose measured up to 24 hrs by LC-MS/MS analysis; format: ADME, organism-based; conditions: in vivo
[6] = Cmax in CD1 mouse plasma assessed as (12aR)-12-(Diphenylmethyl)-7-hydroxy-3,4,12,12a-tetrahydro-1H-[1,4]oxazino[3,4-c]pyrido[2,1-f ][1,2,4]triazine-6,8-dione level at 15 mg/kg, po administered as single dose measured up to 24 hrs by LC-MS/MS analysis; format: ADME, organism-based; design: dose 15 mg/kg, route oral; conditions: in vivo
[7] = Cytotoxicity against human MRC5 cells assessed as reduction in cell viability by ATP bioluminescence assay; format: cell-based
[8] = Elimination rate constant in CD1 mouse trachea assessed as (12aR)-12-(Diphenylmethyl)-7-hydroxy-3,4,12,12a-tetrahydro-1H-[1,4]oxazino[3,4-c]pyrido[2,1-f ][1,2,4]triazine-6,8-dione level at 15 mg/kg, po administered as single dose measured up to 24 hrs by LC-MS/MS analysis; format: ADME, organism-based; conditions: in vivo
[9] = Elimination rate constant in CD1 mouse lung assessed as (12aR)-12-(Diphenylmethyl)-7-hydroxy-3,4,12,12a-tetrahydro-1H-[1,4]oxazino[3,4-c]pyrido[2,1-f ][1,2,4]triazine-6,8-dione level at 15 mg/kg, po administered as single dose measured up to 24 hrs by LC-MS/MS analysis; format: ADME, organism-based; conditions: in vivo
[10] = Elimination rate constant in CD1 mouse brain assessed as (12aR)-12-(Diphenylmethyl)-7-hydroxy-3,4,12,12a-tetrahydro-1H-[1,4]oxazino[3,4-c]pyrido[2,1-f ][1,2,4]triazine-6,8-dione level at 15 mg/kg, po administered as single dose measured up to 24 hrs by LC-MS/MS analysis; format: ADME, organism-based; conditions: in vivo
[11] = Cmax in CD1 mouse blood assessed as (12aR)-12-(Diphenylmethyl)-7-hydroxy-3,4,12,12a-tetrahydro-1H-[1,4]oxazino[3,4-c]pyrido[2,1-f ][1,2,4]triazine-6,8-dione level at 15 mg/kg, po administered as single dose measured up to 24 hrs by LC-MS/MS analysis; format: ADME, organism-based; design: dose 15 mg/kg, route oral; conditions: in vivo
[12] = Tmax in CD1 mouse blood assessed as (12aR)-12-(Diphenylmethyl)-7-hydroxy-3,4,12,12a-tetrahydro-1H-[1,4]oxazino[3,4-c]pyrido[2,1-f ][1,2,4]triazine-6,8-dione level at 15 mg/kg, po administered as single dose measured up to 24 hrs by LC-MS/MS analysis; format: ADME, organism-based; conditions: in vivo
[13] = Ratio of AUClast in CD1 mouse kidney to plasma assessed as (12aR)-12-(Diphenylmethyl)-7-hydroxy-3,4,12,12a-tetrahydro-1H-[1,4]oxazino[3,4-c]pyrido[2,1-f ][1,2,4]triazine-6,8-dione level at 15 mg/kg, po administered as single dose measured up to 24 hrs by LC-MS/MS analysis; format: ADME, organism-based; conditions: other tissue
[14] = Tmax in CD1 mouse muscle assessed as (12aR)-12-(Diphenylmethyl)-7-hydroxy-3,4,12,12a-tetrahydro-1H-[1,4]oxazino[3,4-c]pyrido[2,1-f ][1,2,4]triazine-6,8-dione level at 15 mg/kg, po administered as single dose measured up to 24 hrs by LC-MS/MS analysis; format: ADME, organism-based, Muscle tissue; conditions: in vivo
[15] = Half life in CD1 mouse lung assessed as (12aR)-12-(Diphenylmethyl)-7-hydroxy-3,4,12,12a-tetrahydro-1H-[1,4]oxazino[3,4-c]pyrido[2,1-f ][1,2,4]triazine-6,8-dione level at 15 mg/kg, po administered as single dose measured up to 24 hrs by LC-MS/MS analysis; format: ADME, organism-based; conditions: in vivo
[16] = Cmax in CD1 mouse plasma assessed as baloxavir acid level at 15 mg/kg, po administered as single dose measured up to 24 hrs by LC-MS/MS analysis; format: ADME, organism-based; design: dose 15 mg/kg, route oral; conditions: in vivo
[17] = Tmax in CD1 mouse plasma assessed as baloxavir acid level at 15 mg/kg, po administered as single dose measured up to 24 hrs by LC-MS/MS analysis; format: ADME, organism-based; conditions: in vivo
[18] = AUClast in CD1 mouse small intestine assessed as baloxavir acid level at 15 mg/kg, po administered as single dose measured up to 24 hrs by LC-MS/MS analysis; format: ADME, organism-based; conditions: in vivo
[19] = Cmax in CD1 mouse trachea assessed as baloxavir acid level at 15 mg/kg, po administered as single dose measured after 4 hrs by LC-MS/MS analysis; format: ADME, organism-based; design: dose 15 mg/kg, route oral; conditions: in vivo
[20] = AUClast in CD1 mouse plasma assessed as baloxavir acid level at 15 mg/kg, po administered as single dose measured up to 24 hrs by LC-MS/MS analysis; format: ADME, organism-based; design: time < 24 hr, dose 15 mg/kg, route oral; conditions: in vivo
[21] = AUClast in CD1 mouse kidney assessed as baloxavir acid level at 15 mg/kg, po administered as single dose measured up to 24 hrs by LC-MS/MS analysis; format: ADME, organism-based; conditions: in vivo
[22] = AUClast in CD1 mouse lung assessed as baloxavir acid level at 15 mg/kg, po administered as single dose by LC-MS/MS analysis; format: ADME, organism-based; conditions: in vivo
[23] = Cmax in CD1 mouse heart assessed as baloxavir acid level at 15 mg/kg, po administered as single dose measured up to 24 hrs by LC-MS/MS analysis; format: ADME, organism-based; design: dose 15 mg/kg, route oral; conditions: in vivo
[24] = Ratio of Cmax in CD1 mouse lung to plasma assessed as baloxavir acid level at 15 mg/kg, po administered as single dose by LC-MS/MS analysis; format: ADME, organism-based; conditions: other tissue
[25] = AUClast in CD1 mouse brain assessed as baloxavir acid level at 15 mg/kg, po administered as single dose measured up to 24 hrs by LC-MS/MS analysis; format: ADME, organism-based; conditions: in vivo

COC(=O)OCOc1c2n(ccc1=O)N(C(c1ccccc1)c1ccccc1)[C@@H]1COCCN1C2=O
AUC [1]: 44252 ng·h/g | AUClast [2]: 10575 ng·h/g | t1/2 [3]: 2.57 h | Activity [4]: Non-Toxic | Kel [5]: 0.4 h⁻¹ | Cmax [6]: 1251 ng/mL | CC50 [7]: > 100 µM | Kel [8]: 0.14 h⁻¹ | Kel [9]: 0.44 h⁻¹ | Kel [10]: 0.08 h⁻¹ | Cmax [11]: 951 ng/g | Tmax [12]: 0.5 h | Ratio AUC [13]: 5.5 | Tmax [14]: 0.5 h | t1/2 [15]: 1.57 h

COC(=O)OCOc1c2n(ccc1=O)N([C@@H]1c3ccccc3SCc3c1ccc(F)c3F)[C@@H]1COCCN1C2=O [BALOXAVIR MARBOXIL]
Cmax [16]: 88.5 ng/mL | Tmax [17]: 2 h | AUClast [18]: 105778 ng·h/g | Cmax [19]: 277 ng/g | AUClast [20]: 452 ng·h/mL | AUClast [21]: 21162 ng·h/g | AUClast [22]: 11909 ng·h/g | Cmax [23]: 1188 ng/g | Ratio [24]: 10.8 | AUClast [25]: 317 ng·h/g

From ChEMBL document CHEMBL4622979, “Non-rigid Diarylmethyl Analogs of Baloxavir as Cap-Dependent Endonuclease Inhibitors of Influenza Viruses” (J Med Chem, 2020)
